Experimental data taken from patent US6346373B1, “Whole cell assay for cathepsin K activity” (Merck Frosst Canada & Co.,, priority 1999, dated 2002).
“Also recorded” adds a separate entry of the source. One block for each compound: values may come before it.

Legend:
[1] = molecular target: T1, purified cathepsin K (Homo sapiens, UniProt P43235); test: Pure cathepsin K enzyme assay, hydrolysis of Z-Leu-Arg-Rhodamine in buffer A; assay type: biochemical; settings: 15 min preincubation; for IC50: pure cathepsin K in buffer A, 5 μM Z-Leu-Arg-Rhodamine, read-out: IC50 Pure Cat K
T1 construct: Standards (10 ng) of human mature cathepsin K (pure Cat k mature)
T1 sequence (P43235 115-329): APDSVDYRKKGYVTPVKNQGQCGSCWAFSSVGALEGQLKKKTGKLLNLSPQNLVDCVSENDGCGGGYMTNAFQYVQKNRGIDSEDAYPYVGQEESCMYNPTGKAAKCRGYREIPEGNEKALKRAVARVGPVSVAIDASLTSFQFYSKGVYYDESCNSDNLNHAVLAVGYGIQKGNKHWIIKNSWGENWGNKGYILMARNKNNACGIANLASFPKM
Procedure: (§1) The rate of substrate hydrolysis is determined in supernatants from extracts of mock and cathepsin K expressing cells (5 μg/ml of total cell protein in buffer A) and a suspension of pure cathepsin K enzyme (3 nM resuspended in buffer A), in the presence of different concentrations of cystatin. Suspensions are preincubated with cystatin for 15 min, then the reaction is initiated with the addition of the substrate (5 μM Z-Leu-Arg-Rhodamine). Each data point is an average of duplicates and is reported as a percentage of inhibition of the control reaction.
(§2) The enzymatic activity of purified cathepsin K (3 nM) and transfectants' supernatants (5 μg/ml of protein) is determined by following the rate of hydrolysis of different peptide substrates conjugated to either AMC or rhodamine.
Assays are performed at room temperature in 200 μl of buffer A [50 mM MES (2-(N-morpholino)ethanesulfonic acid) buffer, pH 5.5, containing 2.5 mM EDTA, 2.5 mM dithiothreitol, 10% DMSO]. Substrate hydrolysis is monitored over a period of 10 min at room temperature in a Cytofluor 4000 fluorescent plate reader (Perseptive Biosystems, MA, USA). Cathepsin K activity measurements are calculated as initial rates over the first 5 min of the reaction.
(§3) Stable mock or hCat K expressing cells are resuspended in HBSS, pH 7.4 supplemented with 15 mM Hepes, 20 μg/ml cystatin and 100 μg/ml SBTI. Pure cathepsin K enzyme is resuspended in buffer A. Enzyme suspensions are preincubated with the designated inhibitor for 15 min before initiating the reaction with 5 μM of the substrate Z-Leu-Arg-Rhodamine.

[2] = molecular target: T2, intracellular cathepsin K in hCat K expressing CHO cells (Homo sapiens, UniProt P43235); test: Whole cell assay for cathepsin K in hCat K expressing CHO cells in presence of cystatin and SBTI; assay type: cell-based; settings: hCat K expressing cells in HBSS pH 7.4, 15 mM Hepes, 20 μg/ml cystatin, 100 μg/ml SBTI; 15 min preincubation, 5 μM Z-Leu-Arg-Rhodamine
T2 construct: expressed in transfected cells
T2 sequence (P43235 115-329): T1 sequence (P43235 115-329)
Procedure: Unless otherwise indicated, cathepsin K activity in intact cells is conducted by challenging the cells with 5 μM of the substrate [Z-Leu-Arg]2-rhodamine in the presence of cystatin and SBTI. Using sterile 96-wells culture plates (Nunc, DK, Denmark), 50,000 mock or Cat K expressing stable cell lines are dispensed into each well and incubated for 24 h. Using the Skanwasher 300 plate washer (Skatron, VA, USA) the cells are washed twice with PBS containing Ca^2+ and Mg^2+. Then, pre-incubated for 15 min at room temperature in 200 μl HBSS (Hank's buffered saline solution), pH 7.4, supplemented with 15 mM Hepes, 20 μg/ml cystatin (Calbiochem, CA, USA) and 100 μg/ml soybean trypsin inhibitor (Sigma, ON, Canada). The pre-incubated cells are then challenged with the addition of 2 μl of [Z-Leu-Arg]2-rhodamine (500 μM stock solution in DMSO to a final 5 μM concentration). Substrate hydrolysis is monitored at room temperature in a Cytofluor 4000 fluorescent plate reader (Perseptive Biosystems, MA, USA).
as §3

[3] = tested on: bone resorption; settings: Delaisse et al., 1987; cited from earlier work
[4] = molecular target: T3, recombinant cathepsin K expressed by the CHO tranfectants (hCat K extract) (Homo sapiens, UniProt P43235); test: Enzyme assay in hCat K CHO cell extract supernatant, hydrolysis of Z-Leu-Arg-rhodamine; assay type: biochemical; settings: 5 μg/ml total cell protein in buffer A, 15 min preincubation, 5 μM substrate (FIG. 4)
T3 construct: expressed in transfected cells
T3 sequence (P43235 115-329): T1 sequence (P43235 115-329)
Procedure: as §1
Cultured tranfectants are pelleted, resuspended in PBS and sonicated for 3×10 s using a Kontes Ultrasonic Disrupter. […] Protein concentrations are determined on all the supernatants using the Pierce Coomassie Protein Reagent (Pierce, Ill. USA) as described in the manufacturer's instruction.
as §2
Assays are performed at room temperature in 200 μl of buffer A [50 mM MES (2-(N-morpholino)ethanesulfonic acid) buffer, pH 5.5, containing 2.5 mM EDTA, 2.5 mM dithiothreitol, 10% DMSO]. […] Cathepsin K activity measurements are calculated as initial rates over the first 5 min of the reaction. […]

[5] = tested on: extracellular protease activity of whole hCat K cells; test: Effect of cell-impermeable protease inhibitors on Z-Leu-Arg-Rhodamine hydrolysis by whole hCat K cells (FIG. 5); assay type: cell-based; settings: cystatin 20 μg/ml, EDTA 1 mM, SBTI 100 μg/ml, pepstatin A 0.7 μg/ml; 5 μM Z-Leu-Arg-Rhodamine (FIG. 5)
Procedure: Cells are seeded in sterile 96-wells cell culture plates, grown for 24 h and then washed twice with PBS. Into each well, HBSS pH 7.4 containing 15 mM Hepes is added. The rate of substrate hydrolysis is determined in the presence of the designated protease inhibitors. Cells are preincubated with an inhibitor for 15 min, then the reaction initiated with the addition of the substrate, 5 μM Z-Leu-Arg-Rhodamine. […] The reported enzymatic activities constitute the initial rate of substrate hydrolysis and each data point is an average of duplicates.
To determine the effect of different inhibitors on cathepsin K activity, mock and hCat K whole cells are preincubated with 1 μl of vehicle (control) or an inhibitor for 15 min at room temperature followed by the addition of the substrate. All inhibitors are prepared as stock solutions in DMSO (dimethylsulfoxide) and assays performed with a final DMSO concentration of 1.5%.
Mock and hCat K cells are plated into 96 well tissue culture plates as described in materials and methods and the activity is determined using the Z-Leu-Arg-rhodamine substrate. […]

[6] = Cell permeability tested in CACO-2 cells; assay type: in vitro ADME; settings: unpublished results
[7] = molecular target: human mature cathepsin K (purified enzyme) (human) (UniProt P43235); test: cell-based or functional assay
[8] = molecular target: recombinant human cathepsin K expressed in CHO cells stably transfected with pcDNA3.1/hCat K (human) (UniProt P43235); test: cell-based or functional assay
[9] = molecular target: T4, intracellular cathepsin K in hCat K cells (Homo sapiens, UniProt P43235); test: Flow cytometry (FACS) analysis of hCat K CHO cells with [Z-Leu-Arg]2-rhodamine; assay type: cell-based; settings: 5 μM Z-Leu-Arg-Rho, cystatin and SBTI present (FIG. 8C)
T4 construct: expressed in transfected cells
T4 sequence (P43235 115-329): T1 sequence (P43235 115-329)
Procedure: FIGS. 8A-8C show the results of the flow cytometry analysis of mock and hCat K expressing CHO cells. Pelleted cells are resuspended in Ca^2+ and Mg^2+ free PBS containing 20 μg/ml cystatin and 100 μg/ml SBTI. After a preincubation of 15 min at […], the substrate, 5 μM Z-Leu-Arg-rhodamine is added. Flow cytometry analysis is performed after a 15 min incubation at 37° C. with the substrate.
Stable mock or hCat K cell lines are trypsinized and resuspended at a density of 1 million cells/ml in Ca^2+ and Mg^2+ free PBS, 20 μg/ml cystatin and 100 μg/ml soybean trypsin inhibitor. Cells are preincubated for 15 min at 37° C. in the presence of vehicle or an inhibitor followed by the addition of the substrate, [Z-Leu-Arg]2-rhodamine (5 μM). Flow cytometry analysis is performed using a FACSCalibur system (Becton Dickinson, CA, USA) equipped with a CellQuest software. Voltage and fluorescence compensation adjustments are performed before each experiment using CaliBRITE beads (Becton Dickinson, CA, USA) and the FACSComp software (Becton Dickinson, CA, USA). A minimum of 10,000 events is collected for each sample. Cells are gated to exclude cell debris and abnormally large or aggregated cells.

Compound: cystatin [listing 1 of 2 here]
IC50 on hydrolysis of Z-Leu-Arg-rhodamine by purified cathepsin K ([1]; 3 nM pure enzyme in buffer A, 5 μM substrate (FIG. 4)): 0.2 µg/mL | IC50 on hydrolysis of Z-Leu-Arg-rhodamine by hCat K extract [4]: 0.09 µg/mL | Effect on protease activity in whole hCat K cells [5]: decrease in protease activity; also recorded: effective inhibitor of extracellular cathepsin K activity | Cell permeability [6]: does not permeate into cells

Compound: cystatin [listing 2 of 2 here]
IC50, inhibition of the rate of hydrolysis of Z-Leu-Arg-rhodamine [7]: 0.2 µg/mL | IC50, inhibition of the rate of hydrolysis of Z-Leu-Arg-rhodamine [8]: 0.09 µg/mL

More lines, main results first:

IC50 [1]: 30 nM | IC50 [2]: 576 nM
Compound: CC(C)C[C@H](NC(=O)C1OC1C(=O)O)C(=O)NCCCCNC(=N)N (stereo partly drawn) [Inhibitor E64, trans-epoxysuccinyl-L-leucylamide-(4-guanidino) butane]
Inhibition of bone resorption [3]: effective in inhibiting bone resorption

Effect on increase in fluorescence in hCat K cells [9]: inhibited; also recorded: repressed
Compound: CCOC(=O)[C@H]1O[C@@H]1C(=O)N[C@@H](CC(C)C)C(=O)NCCC(C)C [Inhibitor E64d]

IC50 [1]: 41 nM | IC50 [2]: 307 nM
Compound: CC(C)CCNC(=O)[C@H](CC(C)C)NC(=O)[C@H]1O[C@@H]1C(=O)O [Inhibitor E64c]
